Experimental data published in the NIST ThermoML archive (doi:10.1021/acs.jced.6b00606).

Assay: xn = mol fraction of the nth substance listed
Conditions: 100 kPa, Liquid; for speed of sound: Frequency=3 MHz, Sing-around technique in a fixed-path interferometer; for mass density: Vibrating tube method

O=C1CCCCC1 [cyclohexanone] + C1CCOCC1
Conditions | mass density, 293.15 K [kg/m3] | mass density, 298.15 K [kg/m3] | speed of sound, 293.15 K [m/s] | speed of sound, 298.15 K [m/s] | speed of sound, 303.15 K [m/s]
x2 = 0.1175 | 941.72 | 937.26 | 1411.4 | 1394.5 | 1373.6
x2 = 0.1586 | 939.66 | 935.2 | 1404.6 | 1387.3 | 1366.3
x2 = 0.1952 | 937.78 | 933.32 | 1398.7 | 1381 | 1359.7
x2 = 0.2471 | 935.05 | 930.59 | 1390.5 | 1372.1 | 1350.7
x2 = 0.2843 | 933.05 | 928.59 | 1384.6 | 1365.8 | 1344.4
x2 = 0.3396 | 930 | 925.53 | 1376.1 | 1356.7 | 1335.2
x2 = 0.3784 | 927.8 | 923.32 | 1370.3 | 1350.6 | 1328.9
x2 = 0.4178 | 925.53 | 921.03 | 1364.5 | 1344.5 | 1322.6
x2 = 0.462 | 922.91 | 918.41 | 1358.2 | 1337.8 | 1315.8
x2 = 0.5009 | 920.56 | 916.03 | 1352.6 | 1332.1 | –
x2 = 0.5486 | 917.59 | 913.03 | 1346.1 | 1325.3 | –
x2 = 0.5814 | 915.51 | 910.91 | 1341.7 | 1320.7 | –
x2 = 0.6379 | 911.8 | 907.17 | 1334.3 | 1313.2 | –
x2 = 0.6899 | 908.28 | 903.58 | 1327.7 | 1306.4 | –
x2 = 0.7389 | 904.83 | 900.08 | 1321.7 | 1299.7 | –
x2 = 0.7804 | 901.82 | 897.02 | 1316.8 | 1294.6 | –
x2 = 0.8345 | 897.76 | 892.89 | 1310.6 | 1288.1 | –
x2 = 0.8929 | 893.19 | 888.23 | 1304.1 | 1281.4 | –
